Assay results from the supplement of paper PMC10307832.

Assays:
Experiment in all cases: relative viability (nuclei count vs DMSO), 5 days (fraction); higher = more cells survive
Elesclomol + Bortezomib = compound: CN(NC(=O)CC(=O)NN(C)C(=S)c1ccccc1)C(=S)c1ccccc1 [Elesclomol] + CC(C)C[C@H](NC(=O)[C@H](Cc1ccccc1)NC(=O)c1cnccn1)B(O)O [Bortezomib] (partner 0.002 µM)
Procedure, shortened: (§1)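 Relative viability divides the nuclei count in treated wells by that in vehicle wells. Lung cancer cell lines were seeded in 1536-well plates, dosed by pin tool the next day, and fixed and stained after 5 days in one step with final 0.05% Triton X-100, 1% formaldehyde and 1 ug/ml Hoechst. Dosing was a single drug or a fixed anchor-drug dose plus five library-drug doses (not always all listed) in √10 steps, and values are medians of duplicate plates imaged at 4×.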

Elesclomol + Linsitinib = compound: CN(NC(=O)CC(=O)NN(C)C(=S)c1ccccc1)C(=S)c1ccccc1 [Elesclomol] + C[C@]1(O)C[C@@H](c2nc(-c3ccc4ccc(-c5ccccc5)nc4c3)c3c(N)nccn32)C1 [Linsitinib] (partner 1 µM)
Procedure, shortened: as §1

Elesclomol + Phenformin = compound: CN(NC(=O)CC(=O)NN(C)C(=S)c1ccccc1)C(=S)c1ccccc1 [Elesclomol] + N=C(N)NC(=N)NCCc1ccccc1 [Phenformin] (partner 250 µM)
Procedure, shortened: as §1

Elesclomol + AZD7762 = compound: CN(NC(=O)CC(=O)NN(C)C(=S)c1ccccc1)C(=S)c1ccccc1 [Elesclomol] + NC(=O)Nc1cc(-c2cccc(F)c2)sc1C(=O)N[C@H]1CCCNC1 [AZD7762] (partner 0.2 µM)
Procedure, shortened: as §1

Elesclomol + Decitabine = compound: CN(NC(=O)CC(=O)NN(C)C(=S)c1ccccc1)C(=S)c1ccccc1 [Elesclomol] + Nc1ncn([C@H]2C[C@H](O)[C@@H](CO)O2)c(=O)n1 [Decitabine] (partner 2 µM)
Procedure, shortened: as §1

Row | Cell Line | relative viability (Elesclomol + Bortezomib; first compound 0.003162 µM) | relative viability (Elesclomol + Bortezomib; first compound 0.01 µM) | relative viability (Elesclomol + Bortezomib; first compound 0.03162 µM) | relative viability (Elesclomol + Bortezomib; first compound 0.1 µM) | relative viability (Elesclomol + Linsitinib; first compound 0.003162 µM) | relative viability (Elesclomol + Linsitinib; first compound 0.01 µM) | relative viability (Elesclomol + Linsitinib; first compound 0.03162 µM) | relative viability (Elesclomol + Linsitinib; first compound 0.1 µM) | relative viability (Elesclomol + Phenformin; first compound 0.003162 µM) | relative viability (Elesclomol + Phenformin; first compound 0.01 µM) | relative viability (Elesclomol + Phenformin; first compound 0.03162 µM) | relative viability (Elesclomol + Phenformin; first compound 0.1 µM) | relative viability (Elesclomol + AZD7762; first compound 0.003162 µM) | relative viability (Elesclomol + AZD7762; first compound 0.01 µM) | relative viability (Elesclomol + AZD7762; first compound 0.03162 µM) | relative viability (Elesclomol + AZD7762; first compound 0.1 µM) | relative viability (Elesclomol + Decitabine; first compound 0.003162 µM) | relative viability (Elesclomol + Decitabine; first compound 0.01 µM) | relative viability (Elesclomol + Decitabine; first compound 0.03162 µM) | relative viability (Elesclomol + Decitabine; first compound 0.1 µM)
1 | HOP-62 | 0.884 | 0.708 | 0.83 | 0.146 | 0.909 | 0.94 | 0.994 | 0.184 | 0.629 | 0.508 | 0.353 | 0.176 | 0.545 | 0.576 | 0.389 | 0.104 | 0.189 | 0.231 | 0.214 | 0.137
2 | LC-2-ad | 0.978 | 0.337 | 0.11 | 0.0678 | 0.91 | 0.761 | 0.117 | 0.112 | 0.514 | 0.271 | 0.269 | 0.331 | 0.874 | 0.819 | 0.231 | 0.136 | 0.763 | 0.653 | 0.391 | 0.218
3 | LCLC-97TM1 | 0.493 | 0.0794 | 0.0851 | 0.0274 | 0.175 | 0.16 | 0.141 | 0.116 | 0.369 | 0.168 | 0.422 | 0.387 | 0.234 | 0.158 | 0.16 | 0.0576 | 0.258 | 0.198 | 0.211 | 0.131
4 | LCLC-103H | 1.12 | 0.865 | 1.07 | 0.838 | 1.11 | 1.02 | 1.01 | 1.07 | 0.355 | 0.275 | 0.384 | 0.292 | 0.817 | 0.639 | 0.863 | 0.692 | 0.765 | 0.686 | 0.734 | 0.742
5 | LOU-NH91 | 0.537 | 0.525 | 0.423 | 0.463 | 0.925 | 0.856 | 0.703 | 0.542 | 0.754 | 0.571 | 0.419 | 0.439 | 0.769 | 0.726 | 0.563 | 0.471 | 0.868 | 0.775 | 0.756 | 0.72
6 | LU99A | 1.21 |  | 1.18 | 0.121 | 0.544 |  | 0.615 | 0.117 | 0.804 | 0.561 | 0.901 | 0.219 | 0.357 | 0.329 | 0.418 | 0.185 | 0.904 | 0.807 | 0.794 | 0.556
7 | LXF-289 | 0.997 | 0.998 | 0.968 | 0.673 | 0.941 | 0.863 | 0.938 | 0.693 | 0.516 | 0.406 | 0.487 | 0.467 | 1.01 | 1.04 | 0.974 | 0.509 | 0.395 | 0.39 | 0.389 | 0.253
8 | NCI-H23 | 1.07 |  | 0.603 | 0.119 | 0.572 |  | 0.504 | 0.143 | 0.822 | 0.671 | 0.77 | 0.506 | 0.29 | 0.164 | 0.176 | 0.108 | 0.338 | 0.338 | 0.213 | 0.147
9 | NCI-H322M | 1.17 |  | 1.25 | 1.15 | 0.977 |  | 0.916 | 0.606 | 0.769 | 0.32 | 0.47 | 0.0999 | 0.484 | 0.411 | 0.259 | 0.161 | 0.608 | 0.511 | 0.402 | 0.29
10 | NCI-H441 | 0.55 | 0.454 | 0.25 | 0.0495 | 0.386 | 0.511 | 0.276 | 0.0877 | 0.788 | 0.838 | 0.604 | 0.45 | 1.14 | 1.07 | 1.02 | 0.203 | 0.22 | 0.209 | 0.216 | 0.127
11 | NCI-H460 | 0.911 | 0.292 | 0.0099 | 0.0073 | 0.719 | 0.123 | 0.0104 | 0.01 | 0.439 | 0.0498 | 0.0181 | 0.0123 | 0.547 | 0.513 | 0.232 | 0.048 | 0.433 | 0.396 | 0.107 | 0.0381
12 | NCI-H596 | 1 | 1.04 | 0.95 | 0.156 | 1.12 | 1.13 | 0.978 | 0.267 | 0.734 | 0.693 | 0.714 | 0.335 | 1.19 | 0.943 | 0.927 | 0.252 | 1.03 | 0.903 | 0.664 | 0.241
13 | NCI-H647 | 0.924 | 0.773 | 0.589 | 0.0718 | 1.1 | 0.801 | 0.753 | 0.0738 | 0.546 | 0.234 | 0.104 | 0.0401 | 0.539 | 0.253 | 0.0623 | 0.0307 | 0.355 | 0.293 | 0.259 | 0.0841
14 | NCI-H650 | 1.02 | 0.309 | 0.199 | 0.198 | 1.04 | 0.308 | 0.304 | 0.291 | 0.468 | 0.345 | 0.315 | 0.361 | 1.23 | 0.848 | 0.387 | 0.23 | 0.343 | 0.281 | 0.211 | 0.16
15 | NCI-H727 | 0.679 | 0.405 | 0.185 | 0.0498 | 0.297 | 0.217 | 0.117 | 0.0471 | 0.547 | 0.488 | 0.402 | 0.177 | 0.569 | 0.683 | 0.572 | 0.346 | 0.98 | 0.836 | 0.847 | 0.528
